Experimental data reported in patent publication US6803369B1, “Compounds and methods for the treatment of neoplastic disease” (priority 2000, dated 2004).

Target: complex between DNA gyrase and pBR322 DNA (Staphylococcus aureus, UniProt P0A0K8+P20831)
Assay: Binding assay demonstrating ternary complex formation (SEC with HPLC/MS detection)
Design: species or system S. aureus
Description: The above-defined compounds are an exemplary class of compounds, which display the attributes of the claimed compounds of this invention, that is, they act primarily by inhibition of topoisomerase. While the compounds and methods of the invention are directed to eukaryotic, particularly mammalian topoisomerase inhibition, bacterial DNA gyrase was used to illustrate the mechanism of action. The evidence, provided by bacterial enzyme, for such biological activity includes the fact that selective resistance to the compounds is associated with point mutations in Staphylococcus aureus GyrA and B subunits. Further, Escherichia coli and S. aureus DNA gyrase supercoiling activity is inhibited in vitro by the compounds. A ternary complex has been isolated which is composed of pBR322 relaxed circular DNA, S. aureus DNA gyrase, and test compounds. […] The compounds of the invention also show antagonism of ciprofloxacin-induced cleavage of linear DNA.
An excess of test compound is added, typically as a mixture of three ligands, and after incubation the excess compound is separated from the resulting DNA:gyrase complex using size exclusion chromatography (SEC), with reverse phase HPLC and on-line MS detection to identify and quantify the bound compound.

complex between DNA gyrase and pBR322 DNA, sequence (P20831 whole entry): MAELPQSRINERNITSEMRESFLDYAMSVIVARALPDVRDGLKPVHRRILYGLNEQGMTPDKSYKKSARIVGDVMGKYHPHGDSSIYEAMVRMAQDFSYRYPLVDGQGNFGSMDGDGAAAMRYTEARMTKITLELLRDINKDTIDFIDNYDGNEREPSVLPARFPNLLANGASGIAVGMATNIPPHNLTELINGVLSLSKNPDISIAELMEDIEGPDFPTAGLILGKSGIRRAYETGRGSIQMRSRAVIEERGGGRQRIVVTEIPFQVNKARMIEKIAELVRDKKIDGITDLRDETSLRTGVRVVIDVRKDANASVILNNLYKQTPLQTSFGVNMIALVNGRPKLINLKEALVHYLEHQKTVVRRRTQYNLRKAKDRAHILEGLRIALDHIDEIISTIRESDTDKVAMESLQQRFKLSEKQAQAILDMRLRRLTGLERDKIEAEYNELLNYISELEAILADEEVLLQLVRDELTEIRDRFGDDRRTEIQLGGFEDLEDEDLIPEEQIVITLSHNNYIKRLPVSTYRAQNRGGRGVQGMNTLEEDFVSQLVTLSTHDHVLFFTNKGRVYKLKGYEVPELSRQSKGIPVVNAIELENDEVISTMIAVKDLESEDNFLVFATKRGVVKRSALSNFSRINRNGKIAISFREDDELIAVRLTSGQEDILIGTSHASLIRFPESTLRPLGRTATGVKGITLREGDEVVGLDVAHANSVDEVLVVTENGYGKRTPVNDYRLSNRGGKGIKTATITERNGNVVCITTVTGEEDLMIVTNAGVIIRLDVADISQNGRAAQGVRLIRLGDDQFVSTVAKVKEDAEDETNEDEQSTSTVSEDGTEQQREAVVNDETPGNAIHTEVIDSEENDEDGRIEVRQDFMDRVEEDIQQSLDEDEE
complex between DNA gyrase and pBR322 DNA, sequence (P0A0K8 whole entry): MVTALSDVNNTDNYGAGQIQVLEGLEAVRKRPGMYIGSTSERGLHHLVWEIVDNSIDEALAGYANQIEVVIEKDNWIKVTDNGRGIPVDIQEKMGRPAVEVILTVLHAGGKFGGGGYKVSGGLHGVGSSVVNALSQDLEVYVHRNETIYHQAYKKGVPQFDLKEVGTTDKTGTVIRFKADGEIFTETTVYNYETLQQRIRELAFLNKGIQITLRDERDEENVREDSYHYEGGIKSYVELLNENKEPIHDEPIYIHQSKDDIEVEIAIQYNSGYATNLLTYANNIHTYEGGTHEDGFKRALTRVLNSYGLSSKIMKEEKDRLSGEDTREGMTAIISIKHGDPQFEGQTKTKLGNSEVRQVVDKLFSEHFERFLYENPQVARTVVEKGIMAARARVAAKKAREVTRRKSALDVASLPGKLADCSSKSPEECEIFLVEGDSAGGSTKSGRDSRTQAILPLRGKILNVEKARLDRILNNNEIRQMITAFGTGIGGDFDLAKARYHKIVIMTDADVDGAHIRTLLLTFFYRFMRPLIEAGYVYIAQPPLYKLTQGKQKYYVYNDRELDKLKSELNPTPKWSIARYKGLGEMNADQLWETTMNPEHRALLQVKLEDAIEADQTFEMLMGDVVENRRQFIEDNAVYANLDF

## CCCCCCCN1CCN(C[C@H](O)c2ccnc3ccc(OC)cc23)C[C@H]1CO.O=C(O)C(=O)O.O=C(O)C(=O)O [SB366676-AY, [2S]-1-Heptyl-4-[2-(R)-hydroxy-2-(6methoxyquinolin-4-yl)ethyl]-2-hydroxymethylpiperazine dioxalate]
DNA gyrase + pBR322 DNA, clear resolution from excess ligand
  detection in the high molecular weight fraction on the SEC column: detected in the high molecular weight fraction
In the presence of SB369890 and BRL26172CC
  binding detected in mixture of ligands: Only binding of SB366676-AY
Stoichiometry studies
  stoichiometry: molecules bound to each gyrase:DNA complex: two
